In paper PMC9322122, “Development of (4-Phenylamino)quinazoline Alkylthiourea Derivatives as Novel NF-κB Inhibitors” (Pharmaceuticals, 2022):
Read-outs that look alike come from different tables or passages of the source. Values belong to the compound of their own block, whether it stands above or below them.

Columns and labels:
NF-κB [1] = test system: NF-κB; parameters: method as in PMID 28291344; conditions: cell-based activity reporter assay; cited from earlier work
EGFR kinase = molecular target: EGFR kinase; parameters: method as in PMID 28291344; conditions: cell-free kinase assay at 100 µM ATP; cited from earlier work
NF-κB p65 subunit = test system: NF-κB p65 subunit; parameters: method as in PMID 28448872; conditions: covalent modification of the p65 subunit; read-out: IC50, interfering with the binding of NF-κB to its DNA recognition site; cited from earlier work
26S proteasome = test system: 26S proteasome; parameters: method as in PMID 20420526; conditions: read-out: IC50, inhibition of the activity of the 26S proteasome; cited from earlier work
IKKβ = conditions: read-out: cell-free IC50 IKKβ; cited from earlier work
IL-1β production = conditions: THP-1 macrophage model cell line; read-out: IC50 for suppression of IL-1β production; cited from earlier work
IKKα = conditions: read-out: cell-free IC50 IKKα; cited from earlier work
TNFα production [2] = conditions: THP-1 macrophage model cell line; read-out: IC50 for suppression of TNFα production; cited from earlier work
TNFα = conditions: cited from earlier work
[3] = Cell viability (WST-1), HEK293; format: cell-based; conditions: human, HEK293 cells, mean ± SEM, n = 3
Method: (§1) Cells were incubated with the WST-1 reagent (Thermo Fisher Scientific, Waltham, MA, USA) at 37 °C for 2 h. The cell viability was determined by spectrophotometer at 450 nm.

NF-κB [4] = test: NF-κB luciferase reporter assay; format: cell-based; conditions: Homo sapiens, NF-κB-luciferase-transfected HEK293 cells, TNFα 50 ng/mL; for inhibition at 10 µM: mean ± SEM, n = 3, read-out: NF-κB Luciferase Activity Inh %
Method: NF-κB Luciferase Reporter Vector was purchased from Signosis (Santa Clara, CA, USA) and transfected into HEK-293 cells using FuGENE HD (Promega, Fitchburg, MA, USA) following the manufacturer’s protocol. The transfected cells were incubated in serum-free DMEM for 16 h and then treated with DMSO or indicated compounds. After 3 h, cells were treated with or without 50 ng/mL of Recombinant Human TNFα Protein (R&D systems, Minneapolis, MN, USA) for another 3 h. The protein lysates were analyzed using Steady-Glo® Luciferase Assay System (Promega, Fitchburg, MA, USA) and TECAN Infinite 200 pro (Männedorf, Switzerland).

dTHP−1 cells = test: Cell viability of dTHP-1 cells with or without LPS; format: cell-based, human; conditions: in % (unit assumed); for Cell viability of dTHP-1 cells, 5 μM, LPS / Cell viability of dTHP-1 cells, 5 μM, without LPS: 5 μM (so in the source)
Method: (§2) The HEK-293 (ATCC Cat# CRL-1573, RRID:CVCL_0045) and human monocytic THP−1 cells (ATCC Cat# TIB-202, RRID:CVCL_0006) were, respectively, cultured in DMEM and RPMI 1640 media supplemented with 10% fetal bovine serum, 2 mM L-glutamine, and 1× Antibiotic-Antimycotic at 37 °C in a humidified incubator with 5% CO2. THP−1 cells were differentiated by 100 nM phorbol-12-myristate-13-acetate (PMA) for 4 h and then rested for 44 h as dTHP−1 cells.
as §1
(§3) The dTHP−1 cells were treated with indicated compounds for 3 h and then activated with or without 100 ng/mL lipopolysaccharide (LPS; E. coli 0111:B4) for another 24 h. The levels of human IL-6 and TNFα in supernatants were measured by DuoSet® ELISA Development System (R&D systems, Minneapolis, MN, USA) according to the manufacturer’s protocol.

Recombinant EGFR kinase = Recombinant EGFR kinase (Homo sapiens, UniProt P00533); test: Recombinant EGFR kinase activity; format: biochemical; conditions: read-out: Recombinant EGFR Kinase Activity (%inh at 150 nM)
IL-6 production = IL-6 production in LPS-activated dTHP-1 cells (ELISA); format: cell-based, human; conditions: for inhibition at 7.5 µM / inhibition at 15 µM / IC50: Homo sapiens; for inhibition at 7.5 µM: read-out: IL-6 Production Inh % (7.5 μM); for inhibition at 15 µM: read-out: IL-6 Production Inh % (15 μM); for IC50: LPS-activated dTHP-1 cells, 24 h
Method: as §2, §3

[5] = Cell viability (WST-1), A549; format: cell-based; conditions: human, A549 cells, mean ± SEM, n = 3
Method: as §1

TNFα production [6] = test: TNFα production in LPS-activated dTHP-1 cells (ELISA); format: cell-based; conditions: Homo sapiens; for inhibition at 7.5 µM / inhibition at 15 µM: LPS 100 ng/mL for 24 h, dTHP-1 cells; for inhibition at 7.5 µM: read-out: TNFα Production Inh % (7.5 μM); for inhibition at 15 µM: read-out: TNFα Production Inh % (15 μM); for IC50: LPS-activated dTHP-1 cells, 24 h
Method: as §2, §3

IKKα/β = test system: IKKα/β; parameters: method as in PMID 10768472; conditions: read-out: IC50, targeting IKKα/β; cited from earlier work
phospho-NF-κB p65 (S536) = test: Western blot phospho-NF-κB p65 (S536) in dTHP-1 cells; format: cell-based, human; conditions: CAPE 10 µM; LPS-stimulated dTHP-1 cells
Method: Cells were lysed in the commercial RIPA Buffer (Thermo Fisher Scientific, Waltham, MA, USA) and then centrifuged at 14,000× g for 20 min. […] Antibodies used in this study were phospho-NF-κB p65 (S468; catalog no. 3039), phospho-NF-κB p65 (S536; catalog no. 3033), phospho-IKKα/β (catalog no. 2697), and IκB (catalog no. 9242) from Cell Signaling Technology (Beverly, MA, USA); GAPDH from ABclonal (catalog no. A10868; Woburn, MA, USA). The labeled signals were determined using an enhanced chemiluminescence system (UVP, Upland, CA, USA). The experiments were performed at least two times in triplicate, providing basically the same results.
The dTHP−1 cells were incubated with DMSO (0.1%), 19 (7.5 µM), or CAPE (10 µM) in medium for 3 h and then stimulated with or without LPS (0.1 µg/mL) for another 30 min. (A) The levels of phospho-NF-κB p65 (S536), phospho-IKKα/β, IκB, and GAPDH were determined by Western blot. The normalized (B) phospho-NF-κB p65 (S536), (C) phospho-IKKα/β, and (D) IκB levels were quantified. All data are expressed as mean ± SEM (n = 3); * p < 0.05 compared with the DMSO + LPS group.

[7] = 7.5 μM, LPS 100 ng/mL for 24 h, dTHP-1 cells
[8] = LPS 100 ng/mL for 24 h, dTHP-1 cells

Sequence of Recombinant EGFR kinase (P00533 25-1210): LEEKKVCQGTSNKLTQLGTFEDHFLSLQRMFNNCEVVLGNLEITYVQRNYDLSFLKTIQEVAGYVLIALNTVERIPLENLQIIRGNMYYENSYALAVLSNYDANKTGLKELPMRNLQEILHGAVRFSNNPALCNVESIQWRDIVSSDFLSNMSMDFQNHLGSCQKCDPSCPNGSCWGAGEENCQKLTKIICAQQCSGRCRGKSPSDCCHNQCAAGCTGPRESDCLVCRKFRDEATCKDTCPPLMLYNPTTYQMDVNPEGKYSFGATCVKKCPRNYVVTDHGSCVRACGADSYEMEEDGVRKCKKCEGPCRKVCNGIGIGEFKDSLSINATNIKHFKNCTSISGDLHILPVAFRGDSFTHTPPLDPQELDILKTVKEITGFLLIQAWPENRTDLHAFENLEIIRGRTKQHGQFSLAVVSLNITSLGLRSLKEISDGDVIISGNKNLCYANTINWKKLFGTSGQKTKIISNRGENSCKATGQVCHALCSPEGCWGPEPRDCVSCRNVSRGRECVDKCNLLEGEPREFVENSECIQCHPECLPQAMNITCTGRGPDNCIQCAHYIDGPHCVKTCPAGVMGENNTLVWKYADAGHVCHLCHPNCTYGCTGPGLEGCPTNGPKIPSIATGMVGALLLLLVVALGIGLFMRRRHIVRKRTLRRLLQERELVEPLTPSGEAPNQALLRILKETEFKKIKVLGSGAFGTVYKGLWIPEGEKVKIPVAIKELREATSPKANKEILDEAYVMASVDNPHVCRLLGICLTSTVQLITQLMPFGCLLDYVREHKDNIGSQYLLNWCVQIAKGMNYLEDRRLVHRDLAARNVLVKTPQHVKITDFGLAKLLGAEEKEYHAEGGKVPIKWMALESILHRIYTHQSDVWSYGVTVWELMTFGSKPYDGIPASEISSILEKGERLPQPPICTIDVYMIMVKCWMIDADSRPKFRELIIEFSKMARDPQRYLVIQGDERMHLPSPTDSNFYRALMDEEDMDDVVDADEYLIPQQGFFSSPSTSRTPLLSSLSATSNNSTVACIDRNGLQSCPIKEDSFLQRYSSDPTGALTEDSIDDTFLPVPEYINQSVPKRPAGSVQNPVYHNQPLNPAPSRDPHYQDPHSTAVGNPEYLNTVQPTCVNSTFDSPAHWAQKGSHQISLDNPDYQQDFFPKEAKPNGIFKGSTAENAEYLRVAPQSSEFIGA

Compound: S=C(NCc1ccccc1)Nc1ccc2ncnc(Nc3ccc(Br)cc3)c2c1 [B]
IC50 (NF-κB [1]): 3800 nM | IC50 (EGFR kinase): > 150 nM

Compound: C=C1C(=O)O[C@@H]2C[C@@H](C)[C@@H]3C=CC(=O)[C@@]3(C)[C@@H](O)[C@H]12 [helenalin]
IC50 (NF-κB p65 subunit): 5000 nM

Compound: CC(C)(C)c1ccc(Nc2ncnc3ccc(NC(=S)NCc4ccccc4)cc23)cc1 [C]
IC50 (NF-κB [1]): 5500 nM | IC50 (EGFR kinase): > 150 nM

Compound: C[C@@]12OC(=O)[C@]1([C@@H](O)[C@@H]1C=CCCC1)NC(=O)[C@@H]2CCCl [salinosporamide A]
IC50 (26S proteasome): 1.3 nM

Compound: Cc1ccc2nc(NCCN)c3ncc(C)n3c2c1 [BMS-345541]
IC50 (IKKβ): 300 nM | IC50 (IL-1β production): ~5000 nM | IC50 (IKKα): 4000 nM | IC50 (TNFα production [2]): ~5000 nM | inhibition of TNFα in mice after administration of LPS (TNFα): effective in the inhibition of TNFα in mice

IC50 (NF-κB [4]): 2800 nM | inhibition at 0.15 µM (Recombinant EGFR kinase): 59% | IC50 (IL-6 production): 1100 ± 360 nM | IC50 (TNFα production [6]): 11500 ± 1700 nM | melting point: 226.3 to 228 °C
Compound: S=C(NCC1CC1)Nc1ccc2ncnc(Nc3cccc(Cl)c3)c2c1 [Compound 18, 1-(4-((3-Chlorophenyl)amino)quinazolin-6-yl)-3-(cyclopropylmethyl)thiourea]
viability at 10 µM [3]: 75.7 ± 3.8% | inhibition at 10 µM (NF-κB [4]): 89.9 ± 1.5% | Cell viability of dTHP-1 cells, 5 μM, LPS (dTHP−1 cells; LPS 100 ng/mL for 24 h): 11.2 ± 3.3 | Cell viability of dTHP-1 cells, 5 μM, without LPS (dTHP−1 cells; no LPS): 87.6 ± 2.5 | Cell viability of dTHP-1 cells, 7.5 μM, LPS (dTHP−1 cells; LPS 100 ng/mL for 24 h): 34.9 ± 1.6 | Cell viability of dTHP-1 cells, 7.5 μM, without LPS (dTHP−1 cells; no LPS): 82.7 ± 10.3 | inhibition at 7.5 µM (IL-6 production; [7]): 78.9 ± 14.8% | inhibition at 15 µM (IL-6 production; [8]): 89.4 ± 7% | viability at 10 µM [5]: 79.1 ± 0.6% | inhibition at 7.5 µM (TNFα production [6]): 31 ± 4.5% | inhibition at 15 µM (TNFα production [6]): 65.9 ± 7.9%

Compound: cacospongiolide B
IC50 (IKKα/β): 260 nM

IC50 (NF-κB [4]): 2000 nM | inhibition at 0.15 µM (Recombinant EGFR kinase): 1.5% | IC50 (IL-6 production): 940 ± 110 nM | IC50 (TNFα production [6]): 5100 ± 430 nM | melting point: 177.5 to 179.4 °C
Compound: CC(C)(C)NC(=S)Nc1ccc2ncnc(Nc3cccc(Cl)c3)c2c1 [Compound 20, 1-(tert-Butyl)-3-(4-((3-chlorophenyl)amino)quinazolin-6-yl)thiourea]
viability at 10 µM [3]: 99.7 ± 8% | inhibition at 10 µM (NF-κB [4]): 75.7 ± 3.1% | Cell viability of dTHP-1 cells, 5 μM, LPS (dTHP−1 cells; LPS 100 ng/mL for 24 h): 12.5 ± 0.23 | Cell viability of dTHP-1 cells, 5 μM, without LPS (dTHP−1 cells; no LPS): 42.5 ± 10.6 | Cell viability of dTHP-1 cells, 7.5 μM, LPS (dTHP−1 cells; LPS 100 ng/mL for 24 h): 32.5 ± 0.89 | Cell viability of dTHP-1 cells, 7.5 μM, without LPS (dTHP−1 cells; no LPS): 78.0 ± 0.09 | inhibition at 7.5 µM (IL-6 production; [7]): 91.8 ± 3.5% | inhibition at 15 µM (IL-6 production; [8]): 98.7 ± 1.2% | viability at 10 µM [5]: 98.1 ± 3.1% | inhibition at 7.5 µM (TNFα production [6]): 57.4 ± 7.2% | inhibition at 15 µM (TNFα production [6]): 89.9 ± 0.88%

IC50 (IL-6 production): 1100 ± 360 nM | IC50 (TNFα production [6]): 11400 ± 210 nM
Compound: O=C(/C=C/c1ccc(O)c(O)c1)OCCc1ccccc1 [CAPE, caffeic acid phenethyl ester, reference compound]
inhibition at 10 µM (NF-κB [4]): 72.8% | Cell viability of dTHP-1 cells, 10 μM, LPS (dTHP−1 cells; CAPE 10 μM, LPS 100 ng/mL for 24 h): 52.2 ± 9.7 | Cell viability of dTHP-1 cells, 10 μM, without LPS (dTHP−1 cells; CAPE 10 μM, no LPS): 97.8 ± 0.41 | Phosphorylation of p65 at Ser536 (phospho-NF-κB p65 (S536)): slight reduction in the p65 phosphorylation

IC50 (NF-κB [4]): 1600 nM | inhibition at 0.15 µM (Recombinant EGFR kinase): 68% | IC50 (IL-6 production): 360 ± 70 nM | IC50 (TNFα production [6]): 4400 ± 850 nM | melting point: 178 to 180 °C
Compound: Fc1ccc(CNC(=S)Nc2ccc3ncnc(Nc4cccc(Cl)c4)c3c2)c(F)c1 [Compound 6, 1-(4-((3-chlorophenyl)amino)quinazolin-6-yl)-3-(2,4-difluorobenzyl)thiourea]
viability at 10 µM [3]: 85.5 ± 6.4% | inhibition at 10 µM (NF-κB [4]): 78.4 ± 2.7% | Cell viability of dTHP-1 cells, 5 μM, LPS (dTHP−1 cells; LPS 100 ng/mL for 24 h): 5.0 ± 0.35 | Cell viability of dTHP-1 cells, 5 μM, without LPS (dTHP−1 cells; no LPS): 43.6 ± 9.0 | Cell viability of dTHP-1 cells, 7.5 μM, without LPS (dTHP−1 cells; no LPS): 62.0 ± 14.5 | IL-6 Production Inh % (7.5 μM) (IL-6 production; [7]): almost complete blockage | inhibition at 7.5 µM (IL-6 production; [7]): 97.6 ± 0.6% | inhibition at 15 µM (IL-6 production; [8]): 98.2 ± 1.3% | viability at 10 µM [5]: 75.5 ± 2.9% | inhibition at 7.5 µM (TNFα production [6]): 61.1 ± 5.8% | inhibition at 15 µM (TNFα production [6]): 76.6 ± 3.8%

IC50 (NF-κB [4]): 790 nM
Compound: S=C(NCc1ccccc1)Nc1ccc2ncnc(Nc3cccc(Cl)c3)c2c1 [A, reference compound]
IC50 (NF-κB [1]): 3700 nM | viability at 10 µM [3]: 72.4 ± 3.9% | inhibition at 10 µM (NF-κB [4]): 94.6 ± 1.5% | viability at 10 µM [5]: 81.7 ± 1.2%
